In patent US11072617B2, “Bicyclic sulfones and sulfoxides and methods of use thereof” (Genentech, Inc., priority 2017, dated 2021):

Target: human RIP1 kinase domain (2-375) (Homo sapiens (Human), UniProt Q13546)
Assay: RIP1 kinase inhibition biochemical assay (Transcreener ADP, fluorescence polarization)
Conditions: Ki app from tight-binding Morrison equation; 50 nM enzyme, 50 uM ATP, 2 hours incubation
In short: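 Baculovirus-expressed human RIP1 kinase domain (2-375), 50 nM, incubated 2 h with compounds in pH 7.5 Hepes, 30 mM MgCl2, 50 uM ATP, 0.5% DMSO. ADP detected by Transcreener fluorescence-polarization tracer displacement; Ki^app from Morrison tight-binding fit.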

Sequence of human RIP1 kinase domain (2-375) (Q13546 2-375): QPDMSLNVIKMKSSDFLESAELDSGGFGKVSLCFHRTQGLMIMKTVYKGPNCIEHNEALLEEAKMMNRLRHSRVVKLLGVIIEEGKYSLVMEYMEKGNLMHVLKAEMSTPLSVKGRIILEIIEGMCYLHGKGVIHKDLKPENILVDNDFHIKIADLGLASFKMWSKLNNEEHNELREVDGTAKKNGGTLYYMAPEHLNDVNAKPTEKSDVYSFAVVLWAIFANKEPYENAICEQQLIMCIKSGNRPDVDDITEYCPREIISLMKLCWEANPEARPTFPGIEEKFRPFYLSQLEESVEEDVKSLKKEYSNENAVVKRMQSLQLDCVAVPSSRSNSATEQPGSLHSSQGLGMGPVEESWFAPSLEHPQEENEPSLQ

Compound	Ki [µM]
N#CC1(S(=O)(=O)c2nc3n(n2)[C@H](c2ccccc2)C[C@@H]3F)CC1 (single isomer, unassigned) [Example 157]	0.023
O=S(=O)(c1nc2n(n1)[C@H](c1ccccc1F)C[C@@H]2F)C1CC1F (stereo in doubt) [Example 205, (5S,7S)-7-fluoro-5-(2-fluorophenyl)-2-[(1S,2S)-2-fluorocyclopropyl]sulfonyl-6,7-dihydro-5H-pyrrolo[1,2-b][1,2,4]triazole]	0.02
O=S(=O)(c1nc2n(n1)[C@H](c1cc(F)cc(Cl)c1)C[C@@H]2F)C(F)F (single isomer, unassigned) [Example 215]	0.032
O=S(=O)(c1nc2n(n1)[C@H](c1cc(F)cc(Cl)c1)C[C@@H]2F)C1CC1 (single isomer, unassigned) [Example 214]	0.029
O=S(=O)(c1cc2n(n1)[C@H](c1ccccc1)C[C@@H]2F)C1CC1 [Example 31, (4S,6S)-2-cyclopropylsulfonyl-4-fluoro-6-phenyl-5,6-dihydro-4H-pyrrolo[1,2-b]pyrazole]	0.01
[O-][S@+](CF)c1nc2n(n1)[C@H](c1ccccc1F)C[C@@H]2F (single isomer, unassigned) [Example 75]	0.14
O=S(=O)(CCO)c1nc2n(n1)[C@H](c1ccccc1)C[C@@H]2F (single isomer, unassigned) [Example 223]	0.19
O=S(=O)(c1nc2n(n1)[C@H](c1cc(F)ccc1F)C[C@@H]2F)C1CC1(F)F (single isomer, unassigned) [Example 122]	0.012
[O-][S@@+](CC1CC1)c1nc2n(n1)[C@H](c1ccccc1)C[C@@H]2F (single isomer, unassigned) [Example 186]	0.02
CC(C)S(=O)(=O)c1nc2n(n1)[C@H](c1ccccc1)C[C@@H]2F (single isomer, unassigned) [Example 110]	0.014
N#C[C@H]1C[C@H](S(=O)(=O)c2nc3n(n2)[C@H](c2ccccc2)C[C@@H]3F)C1 [Example 211, trans-3-[[(5S,7S)-7-Fluoro-5-phenyl-6,7-dihydro-5H-pyrrolo[1,2-b][1,2,4]triazol-2-yl]sulfonyl]cyclobutanecarbonitrile]	0.012
[O-][S+](c1nc2n(n1)[C@H](c1ccccc1)C[C@@H]2F)C1CC1 (stereo partly drawn) [Example 27, (5S,7S)-2-cyclopropylsulfinyl-7-fluoro-5-phenyl-6,7-dihydro-5H-pyrrolo[1,2-b][1,2,4]triazole]	0.033
O=S(=O)(c1nc2n(n1)[C@H](c1ccccc1)C[C@@H]2F)[C@H]1C[C@@H](CO)C1 (single isomer, unassigned) [Example 168]	0.53
[O-][S+](c1nc2n(n1)[C@H](c1ccccc1)C[C@@H]2F)C(F)F (mixture of isomers) [Example 13, Rac-(5S,7S)-2-((difluoromethyl)sulfinyl)-7-fluoro-5-phenyl-6,7-dihydro-5H-pyrrolo[1,2-b][1,2,4]triazole]	0.042
O=S(=O)(c1nc2n(n1)[C@H](c1ccc(F)c(F)c1)C[C@@H]2F)C(F)F (single isomer, unassigned) [Example 63]	0.034
[O-][S+](c1nc2n(n1)[C@H](c1ccccc1)C[C@@H]2F)C(F)(F)F (stereo partly drawn) [Example 132, (5S,7S)-7-fluoro-5-phenyl-2-(trifluoromethylsulfinyl)-6,7-dihydro-5H-pyrrolo[1,2-b][1,2,4]triazole]	0.011
O=S(=O)(c1nc2n(n1)[C@H](c1ccc(F)cc1)C[C@@H]2F)C1CC1 (single isomer, unassigned) [Example 34]	0.01
CS(=O)(=O)c1nc2n(n1)C(c1ccccc1)CC2 (racemic) [Example 9]	1.04
CC[S@@+]([O-])c1nc2n(n1)[C@H](c1ccccc1)C[C@@H]2F (single isomer, unassigned) [Example 188]	0.51
[O-][S@+](CF)c1nc2n(n1)[C@H](c1ccccc1Cl)C[C@@H]2F (single isomer, unassigned) [Example 87]	0.1
O=S(=O)(c1nc2n(n1)[C@@H](c1cccc(F)c1F)C[C@H]2F)C(F)(F)F (single isomer, unassigned) [Example 140]	0.54
[O-][S@+](CF)c1nc2n(n1)[C@H](c1cccc(F)c1)C[C@@H]2F (single isomer, unassigned) [Example 83]	0.13

These reach a lower Ki. Values come first.

Ki [µM]	Compound
0.0048	O=S(=O)(c1nc2n(n1)[C@H](c1ccccc1)C[C@@H]2F)C1(C(F)F)CC1 (single isomer, unassigned) [Example 155]
0.007	O=S(=O)(c1nc2n(n1)[C@H](c1cccc(Cl)c1F)C[C@@H]2F)[C@@H]1C[C@H]1F [Example 208, (5S,7S)-5-(3-chloro-2-fluoro-phenyl)-7-fluoro-2-[(1R,2R)-2-fluorocyclopropyl]sulfonyl-6,7-dihydro-5H-pyrrolo[1,2-b][1,2,4]triazole]
< 0.005	O=S(=O)(c1nc2n(n1)[C@H](c1cc(F)cc(F)c1)C[C@@H]2F)C(F)F (single isomer, unassigned) [Example 69]
0.005	O=S(=O)(c1nc2n(n1)[C@H](c1cccc(F)c1F)C[C@@H]2F)C1CC1 (single isomer, unassigned) [Example 40]
0.004	O=S(=O)(c1nc2n(n1)[C@H](c1cccc(F)c1)C[C@@H]2F)C(F)(F)F (single isomer, unassigned) [Example 135]
0.006	O=S(=O)(c1nc2n(n1)[C@H](c1ccccc1)C[C@@H]2F)[C@H]1C[C@H](OC(F)F)C1 [Example 213, (5S,7S)-2-trans-[3-(difluoromethoxy)cyclobutyl]sulfonyl-7-fluoro-5-phenyl-6,7-dihydro-5H-pyrrolo[1,2-b][1,2,4]triazole]
0.008	O=S(=O)(c1nc2n(n1)[C@H](c1ccc(F)cc1)C[C@@H]2F)C1CC1F (stereo in doubt) [Example 197, (5S,7S)-7-fluoro-5-(4-fluorophenyl)-2-[(1R,2R)-2-fluorocyclopropyl]sulfonyl-6,7-dihydro-5H-pyrrolo[1,2-b][1,2,4]triazole]
0.008	O=S(=O)(c1nc2n(n1)[C@H](c1cc(F)cc(Cl)c1)C[C@@H]2F)C1CC1F (stereo in doubt) [Example 199, (5S,7S)-5-(3-chloro-5-fluoro-phenyl)-7-fluoro-2-[(1S,2S)-2-fluorocyclopropyl]sulfonyl-6,7-dihydro-5H-pyrrolo[1,2-b][1,2,4]triazole]
< 0.005	O=S(=O)(c1nc2n(n1)[C@H](c1ccccc1)C[C@@H]2F)[C@H]1C[C@H](F)C1 (single isomer, unassigned) [Example 164]
0.005	O=S(=O)(c1nc2n(n1)[C@H](c1cc(F)ccc1F)C[C@@H]2F)C(F)F (single isomer, unassigned) [Example 67]
< 0.005	[O-][S@@+](CF)c1nc2n(n1)[C@H](c1cc(F)ccc1F)C[C@@H]2F (single isomer, unassigned) [Example 78]
0.007	O=S(=O)(c1nc2n(n1)[C@H](c1cc(F)cc(F)c1F)C[C@@H]2F)C(F)F (single isomer, unassigned) [Example 60]
